Test results from US20090137572A1, “2-substituted-4-heteroaryl-pyrimidines useful for the treatment of proliferative disorders” (priority 2004, published 2009).

Columns and labels:
[1] = molecular target: CDK9/cyclin T1 (Homo sapiens, UniProt P50750); assay: CDK 9 assay (CTD peptide substrate); type: biochemical; settings: read-out: Kinase Inhibition pIC50 CDK9-cyclin T1 (converted)
Outline: (§1)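 Radiometric assay: recombinant human CDK9/cyclin T1 or CDK7/cyclin H with biotinylated CTD heptapeptide-repeat substrate, 100 μM ATP with [γ-32P]ATP, 15 mM MgCl2, MOPS pH 7.2, 45 min at 30 °C. Avidin-captured substrate filtered onto P81; 32P incorporation counted by scintillation.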

[2] = molecular target: T1, Aurora A kinase (Homo sapiens, UniProt O14965); assay: Aurora-A (human) kinase assay (Kemptide substrate); type: biochemical; settings: pIC50 is -log(IC50, M); 15 μM ATP; read-out: Kinase Inhibition pIC50 Aurora A kinase (converted)
T1 construct: purchased
T1 sequence (O14965 1-403): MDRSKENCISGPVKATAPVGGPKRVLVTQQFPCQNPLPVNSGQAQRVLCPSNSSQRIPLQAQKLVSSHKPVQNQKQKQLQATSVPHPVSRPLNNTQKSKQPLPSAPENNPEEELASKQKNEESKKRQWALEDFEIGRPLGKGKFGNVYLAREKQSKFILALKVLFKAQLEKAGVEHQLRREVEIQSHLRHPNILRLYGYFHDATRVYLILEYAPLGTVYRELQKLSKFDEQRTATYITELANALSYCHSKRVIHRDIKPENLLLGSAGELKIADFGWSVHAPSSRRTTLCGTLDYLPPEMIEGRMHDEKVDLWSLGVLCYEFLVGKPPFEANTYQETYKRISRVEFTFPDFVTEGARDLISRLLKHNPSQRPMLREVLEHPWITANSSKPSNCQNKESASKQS
Outline: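 Radiometric filter-binding assay: commercial aurora-A kinase (5-10 ng) with 200 μM Kemptide in MOPS/EDTA pH 7.0, started with 10 mM Mg acetate and 15 μM ATP plus [γ-33P]-ATP. Incubated 40 min at room temperature, stopped with phosphoric acid, incorporated 33P counted by scintillation.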

[3] = molecular target: CDK4-cyclin D1 (Homo sapiens, UniProt P11802); assay: Kinase assay (radioactive phosphate incorporation), CDK4-cyclin D1; type: biochemical; settings: read-out: Kinase Inhibition pIC50 CDK4-cyclin D1 (converted)
Chain of CDK4-cyclin D1 (P11802 whole entry): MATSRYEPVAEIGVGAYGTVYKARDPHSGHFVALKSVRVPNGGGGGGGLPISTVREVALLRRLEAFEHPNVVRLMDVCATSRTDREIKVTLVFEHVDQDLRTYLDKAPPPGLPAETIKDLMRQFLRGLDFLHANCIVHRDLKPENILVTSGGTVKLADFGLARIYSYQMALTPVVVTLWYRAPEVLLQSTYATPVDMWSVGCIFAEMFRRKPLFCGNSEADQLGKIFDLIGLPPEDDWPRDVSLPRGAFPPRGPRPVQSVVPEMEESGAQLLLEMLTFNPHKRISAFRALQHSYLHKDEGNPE
Chain of CDK4-cyclin D1 (P24385 whole entry partner): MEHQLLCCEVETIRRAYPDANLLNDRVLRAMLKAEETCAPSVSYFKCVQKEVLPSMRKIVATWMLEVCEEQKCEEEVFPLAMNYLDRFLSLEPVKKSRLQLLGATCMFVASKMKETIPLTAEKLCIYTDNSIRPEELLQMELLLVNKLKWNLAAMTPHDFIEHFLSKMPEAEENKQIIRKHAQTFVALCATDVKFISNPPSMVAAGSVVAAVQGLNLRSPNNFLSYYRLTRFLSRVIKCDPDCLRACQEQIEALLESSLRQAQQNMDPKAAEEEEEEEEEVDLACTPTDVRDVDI
Experimental: (§2) Kinase assays. The compounds of the invention above were investigated for their ability to inhibit the enzymatic activity of various protein kinases (Table 2). This was achieved by measurement of incorporation of radioactive phosphate from ATP into appropriate polypeptide substrates. Recombinant protein kinases and kinase complexes were produced or obtained commercially. Assays were performed using 96-well plates and appropriate assay buffers (typically 25 mM β-glycerophosphate, 20 mM MOPS, 5 mM EGTA, 1 mM DTT, 1 mM […], pH 7.4), into which were added 2-4 μg of active enzyme with appropriate substrates. The reactions were initiated by addition of Mg/ATP mix (15 mM MgCl2+100 μM ATP with 30-50 kBq per well of [γ-^32P]-ATP) and mixtures incubated as required at 30° C. Reactions were stopped on ice, followed by filtration through p81 filterplates or GF/C filterplates (Whatman Polyfiltronics, Kent, UK). After washing 3 times with 75 mM aq orthophosphoric acid, plates were dried, scintillant added and incorporated radioactivity measured in a scintillation counter (TopCount, Packard Instruments, Pangbourne, Berks, UK). Compounds for kinase assay were made up as 10 mM stocks in DMSO and diluted into 10% DMSO in assay buffer.

[4] = molecular target: GSK3b (Homo sapiens, UniProt P49841); assay: Kinase assay (radioactive phosphate incorporation), GSK-3b; type: biochemical; settings: read-out: Kinase Inhibition pIC50 GSK-3b (converted)
Chain of GSK3b (P49841 whole entry, species assumed): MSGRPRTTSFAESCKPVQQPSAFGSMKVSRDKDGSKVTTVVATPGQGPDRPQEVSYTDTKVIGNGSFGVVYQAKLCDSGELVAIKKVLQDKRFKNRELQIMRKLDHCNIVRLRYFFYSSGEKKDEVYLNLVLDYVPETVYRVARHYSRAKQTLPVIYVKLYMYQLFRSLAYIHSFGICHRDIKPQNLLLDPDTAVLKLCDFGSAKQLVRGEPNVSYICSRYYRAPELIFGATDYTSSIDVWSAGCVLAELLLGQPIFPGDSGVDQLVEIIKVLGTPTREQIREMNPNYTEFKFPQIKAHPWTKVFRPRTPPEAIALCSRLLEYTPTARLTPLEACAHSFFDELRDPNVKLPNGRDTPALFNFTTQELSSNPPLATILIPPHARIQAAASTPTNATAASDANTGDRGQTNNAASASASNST
Experimental: as §2

[5] = molecular target: CDK7/cyclin H (Homo sapiens, UniProt P50613); assay: CDK 7 assay (CTD peptide substrate); type: biochemical; settings: read-out: Kinase Inhibition pIC50 CDK7-cyclin H (converted)
Chain of CDK7/cyclin H (P50613 whole entry): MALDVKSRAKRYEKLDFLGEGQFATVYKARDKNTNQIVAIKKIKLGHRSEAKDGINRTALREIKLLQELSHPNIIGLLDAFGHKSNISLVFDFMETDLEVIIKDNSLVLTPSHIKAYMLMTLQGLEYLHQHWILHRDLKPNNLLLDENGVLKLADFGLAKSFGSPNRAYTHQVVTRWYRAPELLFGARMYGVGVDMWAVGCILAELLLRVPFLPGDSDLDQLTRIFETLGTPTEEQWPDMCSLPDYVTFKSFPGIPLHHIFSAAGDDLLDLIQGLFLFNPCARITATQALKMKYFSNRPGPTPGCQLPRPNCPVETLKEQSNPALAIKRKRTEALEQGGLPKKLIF
Chain of CDK7/cyclin H (P51946 whole entry partner): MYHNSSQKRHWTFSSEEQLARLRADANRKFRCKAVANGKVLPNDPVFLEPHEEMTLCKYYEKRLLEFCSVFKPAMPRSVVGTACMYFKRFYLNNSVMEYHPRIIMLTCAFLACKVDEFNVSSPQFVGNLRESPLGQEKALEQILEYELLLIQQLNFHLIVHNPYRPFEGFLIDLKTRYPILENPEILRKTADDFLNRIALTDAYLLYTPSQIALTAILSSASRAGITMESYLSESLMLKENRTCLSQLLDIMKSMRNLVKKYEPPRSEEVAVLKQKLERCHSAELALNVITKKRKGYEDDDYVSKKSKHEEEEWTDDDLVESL
Outline: as §1

[6] = molecular target: T2, Flt3 (FMS-like tyrosine kinase-3) (Homo sapiens, UniProt P36888); assay: Kinase assay (radioactive phosphate incorporation), Flt3; type: biochemical; settings: pIC50 is -log(IC50, M), read-out: Kinase Inhibition pIC50 Flt3 (converted)
T2 sequence (P36888 27-993): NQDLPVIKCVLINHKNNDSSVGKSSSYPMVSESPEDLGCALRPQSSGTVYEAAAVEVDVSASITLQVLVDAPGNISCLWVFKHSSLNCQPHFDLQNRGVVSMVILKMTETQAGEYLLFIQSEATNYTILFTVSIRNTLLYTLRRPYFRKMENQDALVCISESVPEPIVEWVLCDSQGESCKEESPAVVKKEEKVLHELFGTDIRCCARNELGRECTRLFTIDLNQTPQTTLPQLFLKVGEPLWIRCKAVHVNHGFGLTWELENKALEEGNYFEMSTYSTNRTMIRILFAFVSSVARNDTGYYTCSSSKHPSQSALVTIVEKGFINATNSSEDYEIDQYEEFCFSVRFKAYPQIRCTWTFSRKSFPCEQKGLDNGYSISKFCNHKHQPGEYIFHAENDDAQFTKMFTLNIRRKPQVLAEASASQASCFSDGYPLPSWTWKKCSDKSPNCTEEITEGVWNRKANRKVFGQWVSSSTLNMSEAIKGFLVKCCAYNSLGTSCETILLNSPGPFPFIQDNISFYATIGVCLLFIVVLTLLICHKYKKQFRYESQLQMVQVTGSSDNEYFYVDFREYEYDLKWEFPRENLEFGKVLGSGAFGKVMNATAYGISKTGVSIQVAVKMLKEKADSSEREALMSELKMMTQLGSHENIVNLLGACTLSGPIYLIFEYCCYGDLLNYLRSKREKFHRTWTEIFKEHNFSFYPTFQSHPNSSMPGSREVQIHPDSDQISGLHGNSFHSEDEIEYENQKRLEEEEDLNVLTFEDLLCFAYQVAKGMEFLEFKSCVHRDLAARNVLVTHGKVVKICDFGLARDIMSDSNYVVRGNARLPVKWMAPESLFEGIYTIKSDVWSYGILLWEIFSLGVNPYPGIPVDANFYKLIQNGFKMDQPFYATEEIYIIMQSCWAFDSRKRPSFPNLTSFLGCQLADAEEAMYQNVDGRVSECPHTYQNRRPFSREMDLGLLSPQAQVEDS
Outline: (§3)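 Recombinant kinases (2-4 μg) with polypeptide substrates in pH 7.4 MOPS/β-glycerophosphate buffer. Reactions started with 15 mM MgCl2 + 100 μM ATP containing [γ-32P]-ATP and incubated at 30° C. Filter-bound incorporated radioactivity counted by scintillation; compounds diluted from DMSO stocks into 10% DMSO buffer.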

[7] = molecular target: CDK1-cyclin B (Homo sapiens, UniProt P06493); assay: Kinase assay (radioactive phosphate incorporation), CDK1-cyclin B; type: biochemical; settings: read-out: Kinase Inhibition pIC50 CDK1-cyclin B (converted)
Chain of CDK1-cyclin B (P06493 whole entry): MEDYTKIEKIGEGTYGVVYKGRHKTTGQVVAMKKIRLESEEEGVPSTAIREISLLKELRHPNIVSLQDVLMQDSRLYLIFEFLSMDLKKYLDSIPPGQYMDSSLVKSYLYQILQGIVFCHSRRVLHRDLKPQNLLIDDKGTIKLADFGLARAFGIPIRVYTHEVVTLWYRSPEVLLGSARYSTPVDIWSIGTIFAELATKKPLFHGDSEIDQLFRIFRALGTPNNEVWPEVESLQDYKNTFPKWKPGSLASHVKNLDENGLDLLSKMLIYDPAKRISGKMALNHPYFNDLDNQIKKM
Chain of CDK1-cyclin B (P14635 whole entry partner): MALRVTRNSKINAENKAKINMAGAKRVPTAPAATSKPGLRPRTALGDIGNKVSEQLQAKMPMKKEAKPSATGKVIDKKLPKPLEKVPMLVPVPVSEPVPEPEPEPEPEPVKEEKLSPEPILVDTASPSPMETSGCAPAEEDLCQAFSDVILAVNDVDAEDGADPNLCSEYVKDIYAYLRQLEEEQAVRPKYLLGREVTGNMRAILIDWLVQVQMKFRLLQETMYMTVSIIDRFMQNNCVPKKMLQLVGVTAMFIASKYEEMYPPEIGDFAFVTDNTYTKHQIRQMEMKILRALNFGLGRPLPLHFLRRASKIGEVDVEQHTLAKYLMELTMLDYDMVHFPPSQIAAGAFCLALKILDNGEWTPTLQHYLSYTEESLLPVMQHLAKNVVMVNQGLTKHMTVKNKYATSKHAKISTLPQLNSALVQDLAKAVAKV
Experimental: as §2

[8] = molecular target: CDK2-cycline E (Homo sapiens, UniProt P24941); assay: Kinase assay (radioactive phosphate incorporation), CDK2-cyclin E; type: biochemical; settings: read-out: Kinase Inhibition pIC50 CDK2-cycline E (converted)
Outline: as §3

Chain of CDK9/cyclin T1 (P50750 whole entry): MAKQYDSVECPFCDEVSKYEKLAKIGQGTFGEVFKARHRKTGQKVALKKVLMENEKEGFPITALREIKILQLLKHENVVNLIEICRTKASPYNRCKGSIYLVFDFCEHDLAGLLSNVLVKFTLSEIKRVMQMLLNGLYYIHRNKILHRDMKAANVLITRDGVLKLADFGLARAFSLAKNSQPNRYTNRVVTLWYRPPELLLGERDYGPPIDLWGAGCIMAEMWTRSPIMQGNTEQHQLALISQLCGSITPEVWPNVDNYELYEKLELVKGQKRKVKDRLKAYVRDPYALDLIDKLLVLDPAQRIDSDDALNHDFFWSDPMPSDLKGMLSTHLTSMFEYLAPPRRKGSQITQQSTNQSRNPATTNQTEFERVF
Chain of CDK9/cyclin T1 (O60563 whole entry partner): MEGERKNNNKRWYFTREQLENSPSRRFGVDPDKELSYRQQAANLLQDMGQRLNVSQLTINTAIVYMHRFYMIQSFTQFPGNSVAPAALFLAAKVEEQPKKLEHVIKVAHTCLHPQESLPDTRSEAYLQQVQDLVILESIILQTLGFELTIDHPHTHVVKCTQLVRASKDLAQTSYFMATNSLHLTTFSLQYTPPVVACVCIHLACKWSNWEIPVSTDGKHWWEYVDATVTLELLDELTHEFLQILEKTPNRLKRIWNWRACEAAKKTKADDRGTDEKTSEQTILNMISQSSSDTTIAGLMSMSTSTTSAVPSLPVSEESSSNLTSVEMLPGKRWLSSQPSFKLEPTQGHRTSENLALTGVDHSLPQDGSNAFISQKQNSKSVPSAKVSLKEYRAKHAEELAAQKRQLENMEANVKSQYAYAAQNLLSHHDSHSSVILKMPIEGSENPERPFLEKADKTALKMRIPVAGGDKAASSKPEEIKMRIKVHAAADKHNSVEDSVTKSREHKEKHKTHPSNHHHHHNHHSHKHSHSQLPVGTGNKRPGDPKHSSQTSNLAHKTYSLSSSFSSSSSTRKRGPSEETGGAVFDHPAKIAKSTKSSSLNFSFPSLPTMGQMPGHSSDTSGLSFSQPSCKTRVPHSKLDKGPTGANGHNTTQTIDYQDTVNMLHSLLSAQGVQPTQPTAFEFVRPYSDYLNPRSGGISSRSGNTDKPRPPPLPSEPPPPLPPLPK

Row | Structure (SMILES) | IC50 [1] [µM] | IC50 [2] [µM] | IC50 [3] [µM] | IC50 [4] [µM] | IC50 [5] [µM] | IC50 [6] [µM] | IC50 [7] [µM] | IC50 [8] [µM] | melting point [°C]
1 | CCNc1nc(C)c(-c2ccnc(Nc3cccc(S(=O)(=O)NC(C)C)c3)n2)s1 [Compound 70, 3-[4-(2-Ethylamino-4-methyl-thiazol-5-yl)-pyrimidin-2-ylamino]-N-isopropyl-benzenesulfonamide] | 0.1 | 1 | 0.158 | 5.01 |  |  |  |  | 
2 | CC(=O)NCc1cccc(Nc2nccc(-c3sc(-c4cccnc4)nc3C)n2)c1 [Compound 101, N-{3-[4-(4-Methyl-2-pyridin-3-yl-thiazol-5-yl)-pyrimidin-2-ylamino]-benzyl}-acetamide] | 5.01 | 0.126 | 3.98 | 7.94 | 3.98 | 0.316 | 3.16 | 1.26 | 
3 | CNc1nc(C)c(-c2ccnc(Nc3cccc(S(=O)(=O)NCCOC)c3)n2)s1 [Compound 54, N-(2-Methoxy-ethyl)-3-[4-(4-methyl-2-methylamino-thiazol-5-yl)-pyrimidin-2-ylamino]-benzenesulfonamide] | 0.0398 | 0.0251 | 0.251 | 0.631 | 0.794 | 0.251 |  | 0.1 | 205 to 206
4 | Cc1nc(NC(C)(C)C)sc1-c1ccnc(Nc2cccc([N+](=O)[O-])c2)n1 [Compound 51, [4-(2-tert-Butylamino-4-methyl-thiazol-5-yl)-pyrimidin-2-yl]-(3-nitro-phenyl)-amine] |  | 0.1 | 0.631 | 0.631 |  |  | 1.58 | 0.631 | 
5 | CNc1nc(C)c(-c2ccnc(Nc3cc(OC)c(OC)c(OC)c3)n2)s1 [Compound 23, [4-(4-Methyl-2-methylamino-thiazol-5-yl)-pyrimidin-2-yl]-(3,4,5-trimethoxy-phenyl)-amine] | 0.02 | 0.00398 | 2 | 0.794 | 0.794 |  | 1 |  | 
6 | Cc1nc(C)c(-c2ccnc(Nc3ccc(C)c(S(=O)(=O)N4CCOCC4)c3)n2)s1 [Compound 82, [4-(2,4-Dimethyl-thiazol-5-yl)-pyrimidin-2-yl]-[4-methyl-3-(morpholine-4-sulfonyl)-phenyl]-amine] | 0.398 | 3.16 |  | 3.16 | 3.98 |  |  | 3.98 | 81 to 83
7 | Cc1ccc(Nc2nccc(-c3sc(NC(C)(C)C)nc3C)n2)cc1[N+](=O)[O-] [Compound 2, [4-(2-tert-Butylamino-4-methyl-thiazol-5-yl)-pyrimidin-2-yl]-(4-methyl-3-nitro-phenyl)-amine] | 0.316 |  | 0.316 | 0.631 | 0.794 |  | 1.26 | 1.58 | 
8 | Cc1nc(N)sc1-c1ccnc(Nc2cccc(S(=O)(=O)N3CCOCC3)c2)n1 [Compound 81, [4-(2-Amino-4-methyl-thiazol-5-yl)-pyrimidin-2-yl]-[3-(morpholine-4-sulfonyl)-phenyl]-amine] |  | 3.16 |  | 0.0251 | 6.31 |  |  | 3.16 | 215 to 216
9 | CNc1nc(C)c(-c2ccnc(Nc3cccc(N4CCN(C(C)=O)CC4)c3)n2)s1 [Compound 3, 1-(4-{3-[4-(4-Methyl-2-methylamino-thiazol-5-yl)-pyrimidin-2-ylamino]-phenyl}-piperazin-1-yl)-ethanone] |  | 0.02 | 3.16 | 5.01 | 2 | 0.02 |  |  | 
10 | CC(=O)N1CCN(c2cccc(Nc3nccc(-c4sc(C)nc4C)n3)c2)CC1 [Compound 46, 1-(4-{3-[4-(2,4-Dimethyl-thiazol-5-yl)-pyrimidin-2-ylamino]-phenyl}-piperazin-1-yl)-ethanone] | 1 |  |  | 3.16 | 5.01 | 0.2 | 12.6 |  | 
